{"source": "paper PMC10117287", "about": "(RSC Advances, 2023)", "target": "α-glucosidase (Saccharomyces cerevisiae, UniProt P53341)", "sequence (P53341 whole entry)": "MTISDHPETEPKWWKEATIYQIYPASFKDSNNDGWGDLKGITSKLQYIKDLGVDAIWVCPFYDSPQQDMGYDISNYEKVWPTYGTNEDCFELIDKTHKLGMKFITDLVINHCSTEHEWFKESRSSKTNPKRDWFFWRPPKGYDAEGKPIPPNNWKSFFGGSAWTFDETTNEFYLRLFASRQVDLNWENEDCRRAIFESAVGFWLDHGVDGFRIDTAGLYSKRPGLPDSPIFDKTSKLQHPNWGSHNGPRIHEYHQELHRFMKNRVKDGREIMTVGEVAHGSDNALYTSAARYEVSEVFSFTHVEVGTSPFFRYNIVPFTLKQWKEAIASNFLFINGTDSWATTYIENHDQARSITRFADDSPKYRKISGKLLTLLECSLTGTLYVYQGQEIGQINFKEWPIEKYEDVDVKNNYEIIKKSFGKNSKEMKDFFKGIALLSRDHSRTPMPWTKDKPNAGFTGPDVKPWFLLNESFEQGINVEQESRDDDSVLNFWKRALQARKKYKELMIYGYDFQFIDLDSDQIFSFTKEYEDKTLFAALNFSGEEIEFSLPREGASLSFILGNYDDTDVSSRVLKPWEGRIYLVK", "experiment": "α-glucosidase inhibitory activity", "type": "biochemical"}
{"compound": "COc1cc(-c2nc(-c3ccccc3)c(-c3ccccc3)n2-c2ccc(O)cc2)ccc1O", "note": "[IMI-13]", "values": [{"measurement": "inhibition at 10 µM", "setting": "pH 7, read-out: Inhibition (I%) 10 (μM)", "result": "> 100", "unit": "%"}, {"measurement": "inhibition at 20 µM", "setting": "pH 7, read-out: Inhibition (I%) 20 (μM)", "result": "99.28 ± 0.51", "unit": "%"}, {"measurement": "inhibition at 30 µM", "setting": "pH 7, read-out: Inhibition (I%) 30 (μM)", "result": "95.2 ± 1", "unit": "%"}, {"measurement": "inhibition at 40 µM", "setting": "pH 7, read-out: Inhibition (I%) 40 (μM)", "result": "81.9 ± 1.3", "unit": "%"}, {"measurement": "inhibition at 50 µM", "setting": "pH 7, read-out: Inhibition (I%) 50 (μM)", "result": "26 ± 1.2", "unit": "%"}]}
